From publication PMC6778635 (Cancer Science, 2019)

Target: p97/VCP (Homo sapiens, UniProt P55072)
Assay: cell-free ATPase assay on purified recombinant p97/VCP
Assay type: biochemical

Chain of p97/VCP (P55072 2-806): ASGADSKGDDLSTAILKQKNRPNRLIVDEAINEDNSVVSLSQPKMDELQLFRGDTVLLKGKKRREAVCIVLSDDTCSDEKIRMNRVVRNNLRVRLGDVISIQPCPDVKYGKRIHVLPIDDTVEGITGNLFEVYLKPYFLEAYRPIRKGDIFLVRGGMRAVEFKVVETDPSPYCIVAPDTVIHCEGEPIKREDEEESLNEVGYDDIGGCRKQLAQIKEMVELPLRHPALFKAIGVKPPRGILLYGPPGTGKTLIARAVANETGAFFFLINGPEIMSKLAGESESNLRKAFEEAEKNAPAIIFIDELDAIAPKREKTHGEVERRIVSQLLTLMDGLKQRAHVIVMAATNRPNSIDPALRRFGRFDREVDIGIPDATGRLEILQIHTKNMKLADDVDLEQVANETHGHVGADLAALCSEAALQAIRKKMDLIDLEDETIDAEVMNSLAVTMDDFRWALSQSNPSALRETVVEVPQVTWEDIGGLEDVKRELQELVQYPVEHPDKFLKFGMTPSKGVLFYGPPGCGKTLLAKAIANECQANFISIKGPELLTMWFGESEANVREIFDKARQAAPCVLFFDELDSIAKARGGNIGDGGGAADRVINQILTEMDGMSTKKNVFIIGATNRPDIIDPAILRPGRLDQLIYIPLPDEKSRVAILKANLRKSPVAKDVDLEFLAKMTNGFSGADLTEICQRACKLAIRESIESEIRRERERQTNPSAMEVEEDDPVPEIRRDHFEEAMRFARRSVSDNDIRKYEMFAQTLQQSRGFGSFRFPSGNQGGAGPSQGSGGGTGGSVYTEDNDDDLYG

SMILES: c1ccc(CNc2nc(NCc3ccccc3)c3ccccc3n2)cc1 [DBeQ]
- IC50: 6.99 ± 0.5 µM
